# Patent US10111426B2, “Biocidal materials” (priority 2011, dated 2018)
# Experiment: ultimate aerobic biodegradability in aqueous medium, OECD method 301 B
# Settings: on the fourteenth day / after 14 days
# Protocol: This test is an evaluation, in aqueous medium, of the ultimate aerobic biodegradability of a sample of the concentrated formulation according to the invention. This test is carried out according to the provisions of OECD method 301 B at the concentration of […] corresponding to an organic carbon content of 10 mg/l. The theoretical amount of carbon dioxide formed (CO2Th) in the “concentrated disinfectant detergent for floors, surfaces and materials at 10 mg/l of DOC” test is equal to 33.0 mg/l.
# The physicochemical analysis is carried out according to standard ASTM D5291.
# FIG. 1 represents the curves of results of degradation with respect to CO2Th.
smiles,measurement,value
CC(=O)[O-].[Na+] [sodium acetate],percentage degradation,81%
